Reference: patent publication US20120270935A1, “FORMULATIONS” (priority 2009, published 2012)
Converted amounts (≈) assume the structure as drawn. Read-outs that look alike come from different tables or passages of the source.

Assays:
[1] = tested on: P. acnes NCTC 737; assay: Disc diffusion assay (DDA); format: cell-based, Propionibacterium acnes; details: 200 μg compound per disc, DMSO
Experimental: The first test micro-organism used was Propionibacterium acnes NCTC 737. This is a propionibacterial strain and is the type strain of the […]; it is fully susceptible to antibiotics.
The propionibacteria were cultured and maintained on Wilkins-Chalgren Anaerobe Medium (agar and broth) at pH 6.0; all cultures were incubated anaerobically at 37° C. for 72 hours.
This is an internationally recognised standard method for qualitatively assessing the antimicrobial activity of a compound.
A sterile paper disc was impregnated with a sample of the test compound in a suitable solvent and 30 minutes allowed for the solvents to evaporate (where possible). The disc was then placed on an agar plate onto which the test micro-organism had been inoculated. The plate was then incubated under the conditions described above, following which it was examined visually for signs of microbial growth. If the test compound had antimicrobial activity, a circular zone of no growth would be obtained around the disc. The diameter of this zone of “inhibition” was measured using a ProtoCOL™ automated zone sizer (Synbiosis, Cambridge, UK). In general, a greater diameter and/or area of the zone of inhibition indicates a greater antimicrobial activity in the relevant test compound, although other factors such as test compound mobility through the agar gel may also influence the result.
DDA assays, as described above, were carried out using as the test formulation the gel prepared in Example 2B above. Also tested was the Example 2B gel minus the Klucel™ thickener, which was also subjected to MIC and MBC assays. For the DDAs, which were performed in triplicate, 100 μl of the relevant formulation was loaded onto each disc, and zones of inhibition were recorded after 3 days' anaerobic incubation at 37° C. The MIC and MBC tests were performed in duplicate and the results recorded after 3 days and 7 days respectively, post-subculture onto drug-free medium. […]

[2] = tested on: S. aureus ATCC 29213; assay: MIC assay; format: cell-based, Staphylococcus aureus; details: Mueller-Hinton broth pH 7.0
Text: (§1) (a) staphylococci. The Staphylococcus aureus strain used was ATCC 29213. S. aureus and other staphylococci are common causes of a wide range of skin, skin structure and wound infections; S. aureus is also known to exacerbate eczema. The ATCC 29213 strain is known to be susceptible to beta-lactam antibiotics such as methicillin. The Staphylococcus epidermidis strain used was NCTC 11047. Staph. epidermidis forms part of the resident flora of skin and is an opportunistic pathogen which can cause biofilms to grow for instance on plastic surgical implants such as catheters. Unless otherwise stated, the staphylococci were cultured and maintained on Mueller-Hinton Medium (agar and broth) at pH 7.2; cultures were incubated aerobically at 37° C. for 19-20 hours, at pH 7 (±0.2). (b) C. striatum NCTC 764. Corynebacterium striatum is closely related to organisms (aerobic diphtheroids of the genus Corynebacterium) that cause body odour. It was cultured and maintained on Mueller-Hinton medium (agar and broth). All cultures were incubated aerobically at 37° C. for 72 hours, at pH 7 (±0.2). (c) streptococci. The strains tested were S. mutans ATCC 25175 and S. pyogenes ATCC 12344. S. mutans is a Gram-positive, microaerophilic bacterium which plays a significant role in dental caries and in infective endocarditis. […]
This is a standard international method for quantitatively assessing the antimicrobial activity of a compound in a liquid medium. […]
The wells were inoculated with a liquid suspension of freshly grown micro-organism and incubated under the conditions described above. […] The MIC value was recorded as the lowest concentration of test compound required to inhibit microbial growth, ie the lowest concentration for which the liquid in the well remained clear. […]
(§2) Example 8 was repeated (except for the supplemented DDA assays), using S. aureus ATCC 29213 as the test organism. […] In the DDA assays, 200 μg is of each compound was loaded onto each disc: the culture medium was Mueller-Hinton agar at pH 7.0, and results were recorded after overnight incubation at 37° C. in air. […]

[3] = tested on: S. aureus ATCC 29213; assay: Disc diffusion assay (DDA); format: cell-based, Staphylococcus aureus; details: 200 μg per disc, Mueller-Hinton agar pH 7.0, overnight at 37° C. in air
Text: as §1, with “endocarditis. Streptococcus pyogenes is associated with skin, soft tissue, burn and wound infections.” for “endocarditis.”
A sterile paper disc was impregnated with a sample of the test compound in a suitable solvent and 30 minutes allowed for the solvents to evaporate (where possible). […] The diameter of this zone of “inhibition” was measured using a ProtoCOL™ automated zone sizer (Synbiosis, Cambridge, UK). […]
as §2

Row | SMILES | zone of inhibition at 200 µg/disc ([1]; Cutibacterium acnes, NCTC737, read-out: DDA zone diameter, unsupplemented medium) [mm] | MIC ([2]; Staphylococcus aureus, ATCC29213, read-out: MIC) [µg/mL] | zone of inhibition at 200 µg/disc ([3]; Staphylococcus aureus, ATCC29213, read-out: DDA zone diameter) [mm] | DDA zone diameter, unsupplemented medium [1] [mm] | MIC [2] [µg/mL] | DDA zone diameter [3] [mm]
1 | CC(=O)c1c(O)c(C)c(O)c2c1OC1=CC(=O)C(C(C)=O)C(=O)C12C (stereo not drawn) [Usnic acid, 2,6-diacetyl-7,9-dihydroxy-8,9b-dimethyl-1,3(2H,9bh)-dibenzofurandione] | 23.9 | 31.2 (≈ 90.8 µM) | 13.6 ± 0.3 |  |  | 
2 | CC(=O)c1c([O-])c(C)c([O-])c2c1OC1=CC(=O)C(C(C)=O)C(=O)C12C.[Cu+2] (stereo not drawn) [Copper usnate, copper (II) usnate] |  |  |  | 46.7 ± 0.4 | 7.8 | 14.8 ± 0.3
